US10588967B2, “Chimeric antigen receptor (CAR) signalling system” (UCL BUSINESS PLC, priority 2014, dated 2020)
Entries after “also recorded” stand apart in the source; their conditions may differ.

Key:
[1] = target: FKBP-like binding domains with a F36V mutation (Homo sapiens, UniProt P62942, F37V); conditions: cells engineered to express FKBP-like binding domain fusion proteins; cited from earlier work
[2] = system: T-cells transduced with inducible CAR with modified FKBP12 domains; test: AP1903-inducible CD19 CAR: signalling of transduced T-cells challenged with CD19 negative or positive targets; type: cell-based
Excerpt: FIG. 11—AP1903 homodimerizer inducible CAR. (a) AP1903 homodimerizer inducible CAR was constructed by using modified FKBP12 domains to constitute the heterodimerization motifs for both the antigen recognition component and the signalling component. The antigen recognition component recognizes CD19. (b) T-cells expressing this CAR along with non-transduced T-cells were stained with anti-Fc which recognizes the CAR spacer. The transduced T-cells expressed the CAR well. (c) Transduced T-cells were next challenged with increasing concentration of CID dimerizer AP1903 and challenged with either CD19 negative or CD19 positive target cells.
AP1903 is a synthetic chemical inducer of dimerization which binds to two mutated FKB12 domains (Clackson et al (1998). Proc. Natl. Acad. Sci. U.S.A 95, 10437-10442). An inducible CAR was developed based on this system, using the modified FKBP12 domains to constitute the heterodimerization domain of both the antigen recognition component and signalling component in the framework as described in Example 1 with the antigen recognition domain and the signalling domain co-expressed with a FMD-2A like sequence (FIG. 11a and SEQ ID No. 24). The FKBP12 domains were codon-wobbled to prevent homologous recombination. T-cells were transduced with this construct and challenged with target cells which were CD19 negative or positive.

[3] = system: T-cells transduced with split CD19 CAR with EcR and RXR heterodimerization motifs; test: RSL1-inducible CD19 CAR: IL-2 release of transduced T-cells challenged with CD19 negative or positive targets; type: cell-based; conditions: CD19 negative or CD19 positive target cells; increasing concentration of RSL1
Excerpt: FIG. 10—RSL1 inducible CAR (a) an RSL1 inducible CAR was constructed by using retinoic acid receptor domains and ecodysone receptor domains to constitute the heterodimerization motifs for the antigen recognition component and the signalling component respectively. The antigen recognition component recognizes CD19. (b) T-cells expressing this CAR along with non-transduced T-cells were stained with anti-Fc which recognizes the CAR spacer. The transduced T-cells expressed the CAR well. (c) Transduced T-cells were next challenged with increasing concentration of RSL1 and challenged with either CD19 negative or CD19 positive target cells.
Signaling through the signaling component may be determined by a variety of methods known in the art. […] Functional readouts, such as clonal expansion of T cells, upregulation of activation markers on the cell surface, differentiation into effector cells and induction of cytotoxicity or cytokine secretion may also be utilised. As an illustration, in the present examples the inventors determined levels of interleukin-2 (IL-2) produced by T-cells expressing a receptor component and signalling component of the CAR signalling system according to the present invention upon binding of antigen to the receptor component in the presence of varying concentrations of CID. […]

Sequence of FKBP-like binding domains with a F36V mutation (P62942 2-108 F37V): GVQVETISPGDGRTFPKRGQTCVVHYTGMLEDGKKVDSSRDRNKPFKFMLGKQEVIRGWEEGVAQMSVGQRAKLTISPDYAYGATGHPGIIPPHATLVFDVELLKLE

| Compound | Selectivity of dimerization: FKBP-like (F36V) domains versus endogenous FKBP [1] | Response / signalling of AP1903-inducible CAR T-cells ([2]; CD19 negative or CD19 positive target cells, increasing concentration of AP1903) | Signalling of AP1903-inducible CAR T-cells at very high dimerizer concentration ([2]; very high concentration of dimerizer, CD19 positive targets) | IL-2 release / signalling of RSL1-inducible CAR T-cells [3] |
| --- | --- | --- | --- | --- |
| CC[C@H](C(=O)N1CCCC[C@H]1C(=O)O[C@H](CCc1ccc(OC)c(OC)c1)c1cccc(OCC(=O)NCCNC(=O)COc2cccc([C@@H](CCc3ccc(OC)c(OC)c3)OC(=O)[C@@H]3CCCCN3C(=O)[C@@H](CC)c3cc(OC)c(OC)c(OC)c3)c2)c1)c1cc(OC)c(OC)c(OC)c1 [AP1903] | no interactions involving endogenous FKBP | responded only to CD19 positive targets in the presence of AP1903; also recorded: signal only in the presence of CID | signalling was inhibited; also recorded: signalling is reduced | – |
| CCc1c(OC)cccc1C(=O)NN(C(=O)c1cc(C)cc(C)c1)C(C)(C)C [RSL1, N-(2-ethyl-3-methoxybenzoyl)-N′-(3,5-dimethylbenzoyl)-N′-tert-butylhydrazine] | – | – | – | Only CAR T-cells challenged with SupT1 targets in the presence of RSL1 released IL-2; also recorded: signal only in the presence of RSL1 |
